In US12377191B2, “Chondroinductive peptides and compositions and methods of use thereof” (The Board of Regents of the University of Oklahoma, priority 2018, dated 2025):
Where no end group is shown, it is not given here.

Columns and labels:
rBMSC spheroids = experiment: Collagen II gene expression of rBMSC spheroids (SPPEPS vs TGF-β3); type: cell-based, rat; conditions: 100 ng/ml SPPEPS; normoxic and hypoxic; n=5
Method: Collagen II gene expression with control (no supplement), TGF-β3, or SPPEPS (1, 100 ng/ml). Hypoxic bars are righthand, normoxic bars are lefthand. n=5, p<0.05 difference from αnormoxic control, βhypoxic control, *normoxic counterpart, SSPPEPS (SEQ ID NO: 2) 1 ng/ml, #normoxic TGF-β3,!all groups.

[1] = tested on: rat bone marrow mesenchymal stem cells (rBMSCs); experiment: Preliminary study: chondroinductivity with rBMSCs by rt-PCR; type: cell-based; conditions: 100 ng/ml in medium, 3 days, p<0.05
Method: In a preliminary study, the chondroinductivities of Link N peptide (SEQ ID NO: 9, Table 2) and SPPEPS (SEQ ID NO:2) with rBMSCs were evaluated at two plate coating densities (0.5 and 1 μg/mm2) and two soluble concentrations (10 and 100 ng/mL) after 3 days by rt-PCR (n=3). For rBMSCs cultured on TCT plates the chondroinductivity was compared with negative control (no growth factor or peptide in the cell culture medium) and positive control group. The positive control was a known chondrogenic growth factor in lieu of the SPPEPS (SEQ ID NO:2) peptide, i.e., 10 ng/ml (dissolved in rBMSCs cell culture medium) human transforming growth factor-β3 (TGF-β3, R&D systems, Minneapolis, MN).
The gene expressions were analyzed for all the rBMSCs samples cultured on the TCT plates after 3 days (n=6) and all the rBMSCs cultured on the hydrogel surface after 3 days (n=4). The gene expressions of each sample were evaluated in triplicate. […] GAPDH was used as an endogenous control, with relative gene expression measured using the 2^−ΔΔCt method. […]

[2] = tested on: rat bone marrow mesenchymal stem cells (rBMSCs); experiment: Gene expression (rt-PCR) of rBMSCs on TCT plates, SPPEPS coated or in medium; type: cell-based
Method: In one set of experimental groups, the SPPEPS (SEQ ID NO:2) peptide was adsorbed to the well plate surface. The peptide was dissolved in sterile DI water (20 μg/mL), sterile-filtered (0.22 μm), and was added to sterile 96-well plates to reach the desired coating concentrations (0.5, 1 and 3 μg/mm2) before overnight water evaporation at room temperature in sterile conditions. The rBMSCs were thawed and after passage 4 were cultured on the plates (150,000 cells/well, i.e., […]), for the control groups the rBMSCs were cultured (150,000 cells/well) on the uncoated TCT plates and the cell culture medium was changed every second day.
In a separate set of experimental groups, SPPEPS (SEQ ID NO:2) peptide was included in soluble form in the medium instead of being coated on the surface. rBMSCs were cultured on 96-well plates (150,000 cells/well) with cell culture medium containing SPPEPS (SEQ ID NO:2) (50, 100 and 500 ng/ml). The cell culture medium containing the peptide was changed every second day.
rBMSCs were cultured either on TCT plastic plates or on a hydrogel-coated surface. For the cells cultured on TCT plates, three different concentrations of SPPEPS (SEQ ID NO:2) peptide (50, 100 and 500 ng/ml) in cell culture medium, three different coating concentrations (0.5, 1 and 3 μg/mm2) and a control group (no growth factor or peptide in the cell culture medium) were chosen (n=6) and the peptide chondroinductivity was evaluated by rt-PCR after 3 days (see FIGS. 2-4 and gene expression subsection below).
The gene expressions were analyzed for all the rBMSCs samples cultured on the TCT plates after 3 days (n=6) and all the rBMSCs cultured on the hydrogel surface after 3 days (n=4). The gene expressions of each sample were evaluated in triplicate. To prepare the samples for gene expression, the mRNAs were extracted after 3 days using Qiagen RNeasy mini kit (Valencia, CA) following the kit instructions, before reverse transcription using a cDNA kit (Invitrogen, Carlsbad, CA). rt-PCR was performed with a qTOWER^3 Thermal Cycler (Upland. CA) using TaqMan Col2A1, Sox9, ACAN and GAPDH primers (Invitrogen, Carlsbad, CA). GAPDH was used as an endogenous control, with relative gene expression measured using the 2^−ΔΔCt method. For cells on both surfaces, the calibrators were the rBMSCs at passage 4 before transferring them to the 96-well plates.

[3] = 50 ng/ml, 100 ng/ml and 500 ng/ml groups, 3 days
[4] = 100 ng/ml in medium, 3 days, p<0.05
[5] = coating 0.5 μg/mm2, 3 days, p<0.05
[6] = coating 1 μg/mm2, 3 days, p<0.05
[7] = coating 3 μg/mm2, 3 days, p<0.05

SPPEPS [chondroinductive peptide]
chondroinduction (collagen II gene expression) compared to TGF-β3 (rBMSC spheroids): outperforms TGF-β3 | collagen type II gene expression, times higher than in the control group [1]: 2.3 times | Sox9 gene expression, times higher than coating group ([2]; 50 ng/ml in medium vs coating 0.5 μg/mm2): 4.5 times | Sox9 gene expression, times higher than coating group ([2]; 50 ng/ml in medium vs coating 1 μg/mm2): 4.9 times | Sox9 gene expression, times higher than coating group ([2]; 50 ng/ml in medium vs coating 3 μg/mm2): 5.2 times | aggrecan gene expression higher compared to the control group ([2]; 50 ng/ml in medium, 3 days, p<0.05): 34% | aggrecan gene expression higher than the control group (FIG. 4 legend) [2, 3]: ~35% | aggrecan gene expression relative to the control group (FIG. 4 legend) [2, 3]: about 1.5 × | collagen type II gene expression higher than the control group (FIG. 3 legend) ([2]; 100 ng/ml in medium, 3 days): 35% | aggrecan gene expression higher compared to the control group [2, 4]: 35% | collagen type II gene expression, times higher than in the control group [2, 4]: 1.5 times | collagen type II gene expression, times higher compared to SPPEPS 50 ng/mL ([2]; 100 ng/ml in medium, p<0.05): 1.5 times | collagen type II gene expression, times higher compared to SPPEPS 500 ng/mL ([2]; 100 ng/ml in medium, p<0.05): 1.6 times | Sox9 gene expression, times higher than coating group ([2]; 500 ng/ml in medium vs coating 0.5 μg/mm2): 3.2 times | Sox9 gene expression, times higher than coating group ([2]; 500 ng/ml in medium vs coating 1 μg/mm2): 3.4 times | Sox9 gene expression, times higher than coating group ([2]; 500 ng/ml in medium vs coating 3 μg/mm2): 3.6 times | aggrecan gene expression higher compared to the control group ([2]; 500 ng/ml in medium, 3 days, p<0.05): 31% | Sox9 gene expression: control group times higher than coating group [2, 5]: 4.0 times | collagen type II gene expression lower than in the control group [2, 5]: 61% | Sox9 gene expression: control group times higher than coating group [2, 6]: 4.2 times | collagen type II gene expression lower than in the control group [2, 6]: 74% | Sox9 gene expression: control group times higher than coating group [2, 7]: 4.5 times | aggrecan gene expression higher compared to the control group [2, 7]: 31% | collagen type II gene expression lower than in the control group [2, 7]: 75%
